The target of experiment [1] is T1, HCV polymerase 1A (Δ21 NS5B) (Hepatitis C virus genotype 1a, UniProt P27958).
T1 construct: 20 to 50 nM Δ21 NS5B
Kind of experiment: HCV Polymerase Inhibition Assay (1a). The format is biochemical. The protocol:
(§1) Reaction volume was 50 μL. The reaction was terminated by the addition of 1 volume of 4 mM spermine in 10 mM Tris-Cl pH 8.0, 1 mM EDTA. After incubation for at least 15 minutes at room temperature, the precipitated RNA was captured by filtering through a GF/B filter (Millipore) in a 96 well format. The filter plate was washed three times with 200 μL, each of 2 mM spermine, 10 mM Tris-Cl pH 8.0, 1 mM EDTA, and 2 times with ethanol. After air-drying, 30 μL, of Microscint 20 scintillation cocktail (Packard) was added to each well, and the retained cpm were determined by scintillation counting. […] Retained cpm were plotted vs. inhibitor concentration and fit to equation 1 using non-linear regression (ref. 1) to obtain the IC50 values: Retained cpm=A[sqrt{(IC50+It−Et)^2+4*IC50*Et}−(IC50+It−Et)]
(§2) Ref. Morrison, J. F. and S. R. Stone. 1985. Approaches to the study and analysis of the inhibition of enzymes by slow- and tight-binding inhibitors. Comments Mol. Cell. Biophys. 2: 347-368.
(§3) The sequence of the template RNA used was: 5′-[…] […] […] […] […] […] […] […] […] […] […] […] […] […] […] […] […]-3′ (SEQ ID NO: 1)

The subject of experiment [2] is genotype 1a-H77 subgenomic replicon cell line. Kind of experiment: HCV Polymerase Replicon Assay (genotype 1a-H77, luciferase reporter). The format is cell-based. To be noted: Hepatitis C virus, 72 h, 1a-H77 replicon, three days.
For experiment [3], the system named is genotype 1b-Con1 subgenomic replicon cell line. Kind of experiment: HCV Polymerase Replicon Assay (genotype 1b-Con1, luciferase reporter). The experiment is classed as cell-based. The following applies: Hepatitis C virus, 72 h, 1b-Con1 replicon, three days.
Experiment [4] addresses T2, HCV polymerase 1B (Δ21 NS5B) (Hepatitis C virus genotype 1b, UniProt P26663).
T2 construct: 20 to 50 nM Δ21 NS5B
Kind of experiment: HCV Polymerase Inhibition Assay (1b). The experiment is classed as biochemical. The protocol: as §1, §2, §3

pEC50, pIC50: −log10 of the molar value. Bounds are passed on as bounds.

T2 sequence (P26663 2420-2989, stated change not applied): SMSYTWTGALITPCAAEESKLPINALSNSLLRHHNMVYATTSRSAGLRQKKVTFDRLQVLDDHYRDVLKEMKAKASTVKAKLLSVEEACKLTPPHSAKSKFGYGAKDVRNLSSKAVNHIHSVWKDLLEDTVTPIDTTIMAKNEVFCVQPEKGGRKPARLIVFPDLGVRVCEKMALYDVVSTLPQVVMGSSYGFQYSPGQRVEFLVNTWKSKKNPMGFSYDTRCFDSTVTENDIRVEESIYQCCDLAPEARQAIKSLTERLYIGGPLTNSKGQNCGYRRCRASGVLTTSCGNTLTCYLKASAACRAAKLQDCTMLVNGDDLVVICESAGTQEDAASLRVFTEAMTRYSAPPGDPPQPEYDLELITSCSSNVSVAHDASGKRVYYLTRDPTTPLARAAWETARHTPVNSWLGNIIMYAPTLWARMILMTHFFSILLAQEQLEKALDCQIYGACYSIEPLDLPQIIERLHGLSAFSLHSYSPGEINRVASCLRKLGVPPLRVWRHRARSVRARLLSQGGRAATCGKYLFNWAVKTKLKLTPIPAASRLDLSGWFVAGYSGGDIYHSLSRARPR
T1 sequence (P27958 2421-2990, stated change not applied): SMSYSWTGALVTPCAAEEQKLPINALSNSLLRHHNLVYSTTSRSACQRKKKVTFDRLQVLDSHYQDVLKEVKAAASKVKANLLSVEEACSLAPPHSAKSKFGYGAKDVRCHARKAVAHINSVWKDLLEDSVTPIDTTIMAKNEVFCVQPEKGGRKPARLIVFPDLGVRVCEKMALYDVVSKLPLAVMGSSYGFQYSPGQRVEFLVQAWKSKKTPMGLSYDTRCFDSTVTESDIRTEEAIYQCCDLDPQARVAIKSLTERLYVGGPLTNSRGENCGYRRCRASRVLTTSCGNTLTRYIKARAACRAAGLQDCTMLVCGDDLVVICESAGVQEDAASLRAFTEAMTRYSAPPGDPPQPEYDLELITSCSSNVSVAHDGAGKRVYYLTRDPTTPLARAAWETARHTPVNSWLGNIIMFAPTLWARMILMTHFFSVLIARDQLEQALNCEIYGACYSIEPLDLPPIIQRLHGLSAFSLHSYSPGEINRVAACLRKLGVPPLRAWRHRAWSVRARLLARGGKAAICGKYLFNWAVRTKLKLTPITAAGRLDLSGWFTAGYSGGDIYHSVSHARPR

With `CCOC(=O)CCNC(=O)Nc1cc(-c2ccc3cc(NS(C)(=O)=O)ccc3c2)c(OC)c(C(C)(C)C)c1` [compound 21, ethyl 3-(3-(3-tert-butyl-4-methoxy-5-(6-(methylsulfonamido)naphthalen-2-yl)phenyl)ureido)propanoate], the negative logarithm of the IC50 (pIC50) in experiment [1] is 6.00 to 7.00; in experiment [4], < 6.00. For the same compound, the pEC50 in experiment [2] and in experiment [3] was 6.00 to 7.00 in each case.
As for `CCNC(=O)Nc1cc(-c2ccc3cc(NS(C)(=O)=O)ccc3c2)c(OC)c(C(C)(C)C)c1` [compound 22, N-(6-(3-tert-butyl-5-(3-ethylureido)-2-methoxyphenyl)naphthalen-2-yl)methanesulfonamide], the pIC50 in experiment [1] and in experiment [4] was 6.00 to 7.00 throughout. The pEC50 in experiment [2] and in experiment [3] was 6.00 to 7.00 in each case.
For `COc1c(-c2ccc3cc(NS(C)(=O)=O)ccc3c2)cc(NC(=O)CCNC(=O)OC(C)(C)C)cc1C(C)(C)C` [compound 23, tert-butyl 3-(3-tert-butyl-4-methoxy-5-(6-(methylsulfonamido)naphthalen-2-yl)phenylamino)-3-oxopropylcarbamate], the negative logarithm of the IC50 (pIC50) was 6.00 to 7.00 in experiment [1] and < 6.00 in experiment [4]. Further, the negative logarithm of the EC50 (pEC50) in experiment [2] and in experiment [3] was < 6.00 in each case.
Consider `COc1c(-c2ccc3cc(NS(C)(=O)=O)ccc3c2)cc(N2CCOC2=O)cc1C(C)(C)C` [compound 25, N-(6-(3-tert-butyl-2-methoxy-5-(2-oxooxazolidin-3-yl)phenyl)naphthalen-2-yl)methanesulfonamide], for which the pIC50 in experiment [1] and in experiment [4] was 6.00 to 7.00 each time. For the same compound, the negative-log EC50 (pEC50) in experiment [2] and in experiment [3] was < 6.00 each time.
Turning to `COc1c(-c2ccc3cc(NS(C)(=O)=O)ccc3c2)cc(N2CCCNC2=O)cc1C(C)(C)C` [compound 26, N-(6-(3-tert-butyl-2-methoxy-5-(2-oxotetrahydropyrimidin-1(2H)-yl)phenyl)naphthalen-2-yl)methanesulfonamide], the negative logarithm of the IC50 (pIC50) in experiment [1] and in experiment [4] was 7.00 to 8.00 each time. Besides, the pEC50 is 7.00 to 8.00 in experiment [2] and ≥ 8.00 in experiment [3].
Consider `COc1c(-c2ccc3cc(NS(C)(=O)=O)ccc3c2)cc(N2CCNC2=O)cc1C(C)(C)C` [compound 27, N-(6-(3-tert-butyl-2-methoxy-5-(2-oxoimidazolidin-1-yl)phenyl)naphthalen-2-yl)methanesulfonamide], for which the pIC50 in experiment [1] and in experiment [4] was 7.00 to 8.00 throughout. In addition, the pEC50 in experiment [2] was 6.00 to 7.00; in experiment [3], 7.00 to 8.00.
For the compound `COc1c(-c2ccc3cc(NS(C)(=O)=O)ccc3c2)cc(-c2c[nH]c(=O)[nH]c2=O)cc1C(C)(C)C` [compound 28, N-(6-(3-tert-butyl-5-(2,4-dioxo-1,2,3,4-tetrahydropyrimidin-5-yl)-2-methoxyphenyl)naphthalen-2-yl)methanesulfonamide], the pIC50 was > 8.00 in experiment [1] and 7.00 to 8.00 in experiment [4]. Also, the negative logarithm of the EC50 (pEC50) in experiment [2] and in experiment [3] was ≥ 8.00 in each case.
As to `COc1c(-c2ccc3cc(NS(C)(=O)=O)ccc3c2)cc(N2CCCC2=O)cc1C(C)(C)C` [compound 29, N-(6-(3-tert-butyl-2-methoxy-5-(2-oxopyrrolidin-1-yl)phenyl)naphthalen-2-yl)methanesulfonamide], the negative logarithm of the IC50 (pIC50) in experiment [1] and in experiment [4] was 7.00 to 8.00 throughout. Besides, the negative-log EC50 (pEC50) in experiment [2] is 6.00 to 7.00; in experiment [3], 7.00 to 8.00.
Turning to `COc1c(-c2ccc3cc(NS(C)(=O)=O)ccc3c2)cc(-n2ccccc2=O)cc1C(C)(C)C` [compound 30, N-(6-(3-tert-butyl-2-methoxy-5-(2-oxopyridin-1(2H)-yl)phenyl)naphthalen-2-yl)methanesulfonamide], the negative-log IC50 (pIC50) in experiment [1] and in experiment [4] was 7.00 to 8.00 throughout. Besides, the pEC50 in experiment [2] was 6.00 to 7.00; in experiment [3], 7.00 to 8.00.
As for `CC(C)(C)c1cc(-c2c[nH]c(=O)[nH]c2=O)cc(-c2ccc3cc(NS(C)(=O)=O)ccc3c2)c1N` [compound 33, N-(6-(2-amino-3-tert-butyl-5-(2,4-dioxo-1,2,3,4-tetrahydropyrimidin-5-yl)phenyl)naphthalen-2-yl)methanesulfonamide], the pIC50 in experiment [1] was > 8.00; in experiment [4], 7.00 to 8.00. Besides, the pEC50 was 6.00 to 7.00 in experiment [2] and 7.00 to 8.00 in experiment [3].
As to `CC(C)(C)c1cc(-c2c[nH]c(=O)[nH]c2=O)cc(-c2ccc3cc(NS(C)(=O)=O)ccc3c2)c1I` [compound 34, N-(6-(3-tert-butyl-5-(2,4-dioxo-1,2,3,4-tetrahydropyrimidin-5-yl)-2-iodophenyl)naphthalen-2-yl)methanesulfonamide], the figures for the negative logarithm of the IC50 (pIC50) in experiment [1] and in experiment [4] were > 8.00 and 7.00 to 8.00, respectively. Further, the pEC50 in experiment [2] was 6.00 to 7.00; in experiment [3], 7.00 to 8.00.
In the case of `C=Cc1c(-c2ccc3cc(NS(C)(=O)=O)ccc3c2)cc(-c2c[nH]c(=O)[nH]c2=O)cc1C(C)(C)C` [compound 35, N-(6-(3-tert-butyl-5-(2,4-dioxo-1,2,3,4-tetrahydropyrimidin-5-yl)-2-vinylphenyl)naphthalen-2-yl)methanesulfonamide], the pIC50 in experiment [1] and in experiment [4] was > 8.00 each time. Besides, the pEC50 is 7.00 to 8.00 in experiment [2] and ≥ 8.00 in experiment [3].
Turning to `CCc1c(-c2ccc3cc(NS(C)(=O)=O)ccc3c2)cc(-c2c[nH]c(=O)[nH]c2=O)cc1C(C)(C)C` [compound 36, N-(6-(3-tert-butyl-5-(2,4-dioxo-1,2,3,4-tetrahydropyrimidin-5-yl)-2-ethylphenyl)naphthalen-2-yl)methanesulfonamide], the pIC50 in experiment [1] and in experiment [4] was 7.00 to 8.00 throughout. The pEC50 in experiment [2] and in experiment [3] was 6.00 to 7.00 throughout.
For `COc1c(-c2ccc3cc(NS(C)(=O)=O)ccc3c2)cc(-c2c[nH]c(=O)[nH]c2=O)cc1C(F)(F)C(F)(F)F` [compound 37, N-(6-(5-(2,4-dioxo-1,2,3,4-tetrahydropyrimidin-5-yl)-2-methoxy-3-(perfluoroethyl)phenyl)naphthalen-2-yl)methanesulfonamide], the pIC50 was > 8.00 in experiment [1] and 7.00 to 8.00 in experiment [4]. For the same compound, the figures for the negative logarithm of the EC50 (pEC50) in experiment [2] and in experiment [3] were 6.00 to 7.00 and 7.00 to 8.00, respectively.
Regarding `COc1c(-c2ccoc2)cc(-c2c[nH]c(=O)[nH]c2=O)cc1-c1ccc2cc(NS(C)(=O)=O)ccc2c1` [compound 38, N-(6-(5-(2,4-dioxo-1,2,3,4-tetrahydropyrimidin-5-yl)-3-(furan-3-yl)-2-methoxyphenyl)naphthalen-2-yl)methanesulfonamide], the results for the pIC50 in experiment [1] and in experiment [4] were > 8.00 and 7.00 to 8.00, respectively. The negative-log EC50 (pEC50) in experiment [2] is 6.00 to 7.00; in experiment [3], 7.00 to 8.00.
`COc1c(-c2ccc3cc(NS(C)(=O)=O)ccc3c2)cc(-c2c[nH]c(=O)[nH]c2=O)cc1-c1cccs1` [compound 39, N-(6-(5-(2,4-dioxo-1,2,3,4-tetrahydropyrimidin-5-yl)-2-methoxy-3-(thiophen-2-yl)phenyl)naphthalen-2-yl)methanesulfonamide]: the pIC50 in experiment [1] and in experiment [4] was > 8.00 in each case. Besides, the pEC50 in experiment [2] was 7.00 to 8.00; in experiment [3], ≥ 8.00.
For the compound `COc1c(-c2ccc3cc(NS(C)(=O)=O)ccc3c2)cc(-c2c[nH]c(=O)[nH]c2=O)cc1-c1ccco1` [compound 40, N-(6-(5-(2,4-dioxo-1,2,3,4-tetrahydropyrimidin-5-yl)-3-(furan-2-yl)-2-methoxyphenyl)naphthalen-2-yl)methanesulfonamide], the pIC50 in experiment [1] and in experiment [4] was > 8.00 in each case. For the same compound, the pEC50 in experiment [2] was 6.00 to 7.00; in experiment [3], 7.00 to 8.00.
In the case of `COc1c(-c2ccc3cc(NS(C)(=O)=O)ccc3c2)cc(-c2c[nH]c(=O)[nH]c2=O)cc1-c1cnn(C)c1` [compound 41, N-(6-(5-(2,4-dioxo-1,2,3,4-tetrahydropyrimidin-5-yl)-2-methoxy-3-(1-methyl-1H-pyrazol-4-yl)phenyl)naphthalen-2-yl)methanesulfonamide], the pIC50 in experiment [1] and in experiment [4] was 6.00 to 7.00 throughout. In addition, the pEC50 in experiment [2] and in experiment [3] was < 6.00 in each case.
On to `COc1c(-c2ccc3cc(NS(C)(=O)=O)ccc3c2)cc(-c2c[nH]c(=O)[nH]c2=O)cc1-c1ccc(C)o1` [compound 42, N-(6-(5-(2,4-dioxo-1,2,3,4-tetrahydropyrimidin-5-yl)-2-methoxy-3-(5-methylfuran-2-yl)phenyl)naphthalen-2-yl)methanesulfonamide], for which the negative logarithm of the IC50 (pIC50) was > 8.00 in experiment [1] and 7.00 to 8.00 in experiment [4]. For the same compound, the negative-log EC50 (pEC50) in experiment [2] is 7.00 to 8.00; in experiment [3], ≥ 8.00.
On to `COc1c(-c2ccsc2)cc(-c2c[nH]c(=O)[nH]c2=O)cc1-c1ccc2cc(NS(C)(=O)=O)ccc2c1` [compound 43, N-(6-(5-(2,4-dioxo-1,2,3,4-tetrahydropyrimidin-5-yl)-2-methoxy-3-(thiophen-3-yl)phenyl)naphthalen-2-yl)methanesulfonamide], for which the negative logarithm of the IC50 (pIC50) in experiment [1] and in experiment [4] was > 8.00 in each case. The pEC50 in experiment [2] was 6.00 to 7.00; in experiment [3], 7.00 to 8.00.

The values are drawn from patent US9353091B2 (priority 2009, dated 2016).
